Data on one compound can be found in US6797721B2, “Phorboxazole derivatives for treating cancer” (Parker Hughes Institute, priority 1999, dated 2004).

As usually defined, the IC50 is the midpoint of a concentration-inhibition curve.

Assay [1] deals with MDA-MB-231 breast cancer cells. Nature of the assay: In vitro adhesion assay to ECM proteins, MDA-MB-231. It is filed as cell-based, human. The settings on record: laminin-, fibronectin-, and collagen-coated plates, 0.1 μM to 1 μM for 24 hours. As for the experimental part:
Human brain tumor cell lines U-373 MG and breast cancer cell lines BT-20 and MDA-MB-231 were obtained from American Type Culture Collection (ATCC, Rockville, Md.) and maintained in liquid culture using DMEM supplemented with 10% fetal bovine serum and antibiotics. Fibroblast conditioned medium was used as a source of chemoattractant in vitro invasion assays. Conditioned medium was prepared as described in the literature (Albini et.al., 1987, Cancer Res., 47:3239-3245).
In vitro adhesion assays were performed to (a) study the baseline adhesive properties of various breast cancer and glioblastoma cell lines and (b) evaluate the effects of phorboxazole A derivatives on the adhesive properties of breast cancer and glioblastoma cells. The plates for the adhesion assays were precoated with the extracellular matrix proteins laminin, fibronectin, or type IV collagen (each at a final concentration of 1 μg/ml in PBS) overnight at 4° C. and dried. On the day of the experiment, the wells were rehydrated and blocked with 10% bovine serum albumin in PBS for 1 hour at room temperature and used for the adhesion assays, as described below.
The effects of synthetic phorboxazole A and specific derivatives on adhesion of breast cancer and glioblastoma cells was studied. Exponentially growing cells in DMEM were incubated with phorboxazole compounds or genistein as a control at concentrations ranging from 0.1 μM to 1 μM for 24 hours in a humidified 5% CO2 atmosphere. DMSO (0.1%) was included as a vehicle control. After treatment, cells were detached from the flasks with 0.05% trypsin (Life Technologies) resuspended in DMEM, incubated at 37° C. for 2 hours to allow them to recover from the trypsinization stress and examined for their ability to adhere to plates precoated with ECM proteins.
In adhesion assays, cells were centrifuged, washed twice with serum-free DMEM, counted and resuspended in serum-free DMEM to a final concentration of 2.5×10^5 cells/ml. […] The adherent fraction was quantitated using MTT (3-[4,5-dimethylthiazol-2-yl]-2,5-diphenyltetrazolium bromide) assays. […] The absorbance of each well was measured in a microplate reader (Labsystems) at 540 nm and a reference wavelength of 690 nm.
To translate the OD540 values into the number of cells in each well, the OD540 values were compared to those on standard OD540-versus-cell number curves generated for each cell line. The adherent fractions of cells treated with phorboxazole A derivatives were compared to those of DMSO-treated control cells and the percent inhibition of adhesion was determined using the formula: [formula]
Each treatment condition was evaluated in duplicate in 3 independent experiments. The IC50 values were calculated by non-linear regression analysis. […]

Assay [2] concerns U373 glioblastoma cells. Nature of the assay: Matrigel invasion assay (Boyden chambers). It is filed as cell-based. The settings on record: Homo sapiens, U373 MG; cells treated 72 hours; invasion 48 hours; read-out: IC50, inhibition of glioblastoma cell invasion through Matrigel. As for the experimental part: The in vitro invasiveness of human brain tumor cell lines U-373 MG and breast cancer cell lines BT-20 and MDA-MB-231 cells was assayed using a previously published method which employs Matrigel™-coated Costar 24-well transwell cell culture chambers (“Boyden chambers”) with 8.0-μm-pore polycarbonate filter inserts (Albini,et.al, 1987, Cancer Res., 47:3239-3245). The chamber filters were coated with 50 μg/ml of Matrigel™ matrix, incubated overnight at room temperature under a laminar flow hood and stored at 4° C. Matrigel™ matrix is made up of several components of the extracellular matrix (ECM), including collagen, laminin and proteo-glycans. The cancer cells were incubated with 500, 250, 125, 62.5, and 31.2 nM concentrations of the synthetic Phorboxazole compounds for 72 hours.
On the day of the experiment, the coated inserts were rehydrated with 0.5 ml serum-free DMEM containing 0.1% bovine serum albumin for 1-2 hours. The treated cells were trypsinized, washed twice with serum-free DMEM containing BSA, counted and resuspended at 1×10^5 cells/ml. A 0.5 ml cell suspension containing 5×10^4 cells in a serum-free DMEM was added to the Matrigel™-coated and rehydrated filter inserts. A volume of 750 μl of NIH fibroblast conditioned medium was placed as a chemoattractant in 24-well plates and the inserts were placed in wells and incubated at 37° C. for 48 hours.
The invasive cells that migrated to the lower side of the filter were fixed, stained with Hema-3 solutions and counted under microscope. Five to 10 random fields per filter were counted to determine the mean (±SE) values for the invasive fraction. The invasive fractions of cells treated with phorboxazole A derivatives were compared to those of DMSO treated control cells and the percent inhibition of invasiveness was determined using the formula: [formula]
Each treatment condition was evaluated in duplicate in 3 independent experiments. IC50 values were calculated by non-linear regression analysis using Graphpad Prisin Software Version 2.0 (Graphpad Software Inc., San Diego, Calif.).

For `C=C1C[C@@H]2C[C@@H]3C[C@@H](O)C[C@@H](O3)c3coc(n3)/C=C/C[C@H]3O[C@@H](/C(C)=C/c4coc(C[C@]5(O)C[C@H](OC)C[C@H]([C@H](O)/C=C(C)/C=C/[C@@H](C/C=C/Br)OC)O5)n4)[C@H](C)[C@@H](OC(=O)/C=C\C[C@@H](C1)O2)[C@H]3C` [Compound 1, Phorboxazole A], in assay [1], the “Inhibition of cell adhesion” value is “active”. Also, the IC50 in assay [2] is under 0.0312 µM.
